# Measured values as given in US9867862B2, “Compounds and method for treating or preventing disease conditions associated with alpha-1-antitrypsin” (AMICUS THERAPEUTICS, INC., priority 2010, dated 2018).
# Peptide text beside a SMILES is read from it.
# Key:
# [1] = target: T1, ZAT (Homo sapiens, UniProt P01009, E366K); test: In vitro polymerization assay (native gel, western blot); assay type: biochemical; settings: FIG. 3 western blot; peptides at 1 mM with Z-AT, 4 hours 37° C. then 30 minutes 62° C.; versus control (no peptide)
# T1 sequence (P01009 25-418 E366K): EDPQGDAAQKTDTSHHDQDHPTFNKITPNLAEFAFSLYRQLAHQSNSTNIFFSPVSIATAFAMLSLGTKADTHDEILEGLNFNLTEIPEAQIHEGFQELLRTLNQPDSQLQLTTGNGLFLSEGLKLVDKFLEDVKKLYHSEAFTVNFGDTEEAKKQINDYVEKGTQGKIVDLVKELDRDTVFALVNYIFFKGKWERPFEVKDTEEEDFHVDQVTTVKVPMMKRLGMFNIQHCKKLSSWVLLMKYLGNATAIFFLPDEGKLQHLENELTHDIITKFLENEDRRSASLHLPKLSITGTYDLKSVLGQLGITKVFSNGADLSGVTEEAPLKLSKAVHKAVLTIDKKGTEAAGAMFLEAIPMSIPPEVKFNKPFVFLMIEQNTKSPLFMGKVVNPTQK
# Experimental: An in vitro polymerization assay was employed to screen the ability of a pharmacological chaperone to inhibit polymerization. […] In brief, M-AT or Z-AT was incubated at 37° C. for 4 hours, followed by 30 minutes at 62° C. The samples were then run on a Bis-Tris native gel and either blotted onto PVDF or detected with colloidal blue staining. Peptides at 1 mM were incubated with equal amounts (50 ng) of Z-AT for 4 hours at 37° C., followed by a 62° C. pulse for 30 minutes. Samples were separated on a 4-12% Bis-Tris native gel, blotted onto PVDF and the blot probed with a human specific antibody for alpha-1-antitrypsin. Additionally, in the case of samples from human plasma, a western blot was performed to assess the level of alpha-1-antitrypsin. polymerization. The inducible HeLa cell line retains Z-AT intracellularly as little Z-AT can be detected in the media. The Z-AT contained in lysates is apparently not processed to complex N-glycans as the molecular weight is slightly lower than M-AT purified from plasma, which is consistent with the findings of others. The intracellular material is endo H sensitive indicative of high mannose N-linked glycans.
# [2] = target: T1, ZAT; settings: background studies; cited from earlier work
# [3] = target: alpha-1-antitrypsin (Homo sapiens, UniProt P01009, E366K); test: Alpha-1-antitrypsin elastase inhibition assay; assay type: biochemical
# Sequence of alpha-1-antitrypsin (P01009 25-418 E366K): as above
# Text: An elastase inhibition assay was developed to measure the effects of a test compound on the inhibitory activity of secreted Z-AT. In one embodiment, to detect elastase activity, bovine elastin was labeled with BODIPY, which causes the fluorescence of the conjugate to be quenched. This non-fluorescent substrate was digested by elastase to yield highly fluorescent fragments. Alternatively, the non-fluorescent substrate may be digested by another protease to yield fluorescent fragments. The activity of α-1-antitrypsin was monitored by measuring a decrease in fluorescent signal, indicative of the elastase inhibitory activity of α-1-antitrypsin. […] In one embodiment, the resulting fluorescence was monitored in a Perkin Elmer Victor V plate reader using absorption and emission filters for fluorescein […].
# Additional cell lines to screen for pharmacologic chaperones and to identify surrogate markers of Z-AT expression were developed using an inducible promoter system. The inducible systems are useful for determining if particular chaperones need to be present prior to Z-AT translation in the endoplasmic reticulum to induce secretion of Z-AT and/or inhibit […]
# [4] = target: T1, ZAT; test: Western blot of intracellular ZAT in ZAT inducible CHO cells; assay type: cell-based; design: expressed in transfected cells; host or cells: inducible serum-free CHO cells (tetracycline repressor control); settings: for intracellular levels of ZAT, normalized densitometry: FIG. 14 graph
# Experimental: Serum Free CHO and HeLa cells in which expression of Z-AT is under control of the tetracycline repressor were grown to confluence. To analyze the intra- and extracellular production of Z-AT, media was collected and cells were lysed in non-ionic detergent. Media and lysates were analyzed on a NuPAGE SDS gel followed by western blotting utilizing a human specific sheep anti-human alpha-1-antitrypsin polyclonal antibody.
# Furthermore, two compounds, compounds V and VI, decrease intracellular levels of ZAT. These compounds are shown in Table 2, along with structural data for each compound. […] The levels of intracellular levels of ZAT are even lower when treated at the higher concentration. […] FIG. 13 depicts a western blot of intracellular levels of ZAT after 1mM treatment. […] FIG. 14 is a graph of showing intracellular levels of ZAT after 1mM treatment with compounds V and VI. […] FIG. 15 is an in vitro polymerization assay with compounds I-VI, as well as Ac-TTAI-NH2 (SEQ ID NO: 6), a vehicle control and non-treated alpha-1-antitrypsin. There is an increase in polymerization after treatment with the low-molecular weight compounds.
# [5] = target: T1, ZAT; test: Extracellular alpha-1-antitrypsin activity in media of ZAT inducible CHO cells; assay type: cell-based; design: expressed in transfected cells; host or cells: inducible serum-free CHO cells (tetracycline repressor control); settings: FIG. 11, increasing treatment
# Text: An elastase inhibition assay was developed to measure the effects of a test compound on the inhibitory activity of secreted Z-AT. In one embodiment, to detect elastase activity, bovine elastin was labeled with BODIPY, which causes the fluorescence of the conjugate to be quenched. This non-fluorescent substrate was digested by elastase to yield highly fluorescent fragments. Alternatively, the non-fluorescent substrate may be digested by another protease to yield fluorescent fragments. The activity of α-1-antitrypsin was monitored by measuring a decrease in fluorescent signal, indicative of the elastase inhibitory activity of α-1-antitrypsin. A test compound was added to determine its effect on the elastase inhibitory activity of α-1-antitrypsin. In one embodiment, the resulting fluorescence was monitored in a Perkin Elmer Victor V plate reader using absorption and emission filters for fluorescein […].
# Serum free CHO cell lines were developed, expressing M-AT, Z-AT (Glu342Lys) and the S mutation (Glu264Val), so that secreted alpha-1-antitrypsin activity could be measured directly from media without interference from bovine, alpha-1-antitrypsin introduced into the media from serum. Briefly, cDNA was isolated by PCR from first strand human liver cDNA using conventional cloning methods. […]
# [6] = target: T1, ZAT; settings: background studies; cited from earlier work; remark: listed apart in the source
# [7] = 100 μM, FIG. 9 western blot, ZAT inducible CHO cells
# [8] = 1 mM, FIG. 10 western blot, ZAT inducible CHO cells, compared with 100 μM
compound,measurement,setting,value
"CC(=O)NC(C(=O)NC(CCC(=O)O)C(=O)NC(C)C(=O)NC(C)C(=O)NCC(N)=O)C(C)O (stereo not drawn) [Ac-TEAAG-NH2, Ac-Thr-Glu-Ala-Ala-Gly-NH2] (Ac-TEAAG-NH2; configuration not given here)",alpha-1-antitrypsin polymerization,[1],significantly less alpha-1-antitrypsin polymerization
O=C(O)CC(O)(CC(=O)O)C(=O)O [citrate],in vitro polymerization of Z-AT,[2],block in vitro polymerization of Z-AT
"CC(=O)NC(C(=O)NC(CCC(=O)O)C(=O)NC(C(=O)NC(C)C(N)=O)C(C)C)C(C)O (stereo not drawn) [Ac-TEVA-NH2, Ac-Thr-Glu-Val-Ala-NH2] (Ac-TEVA-NH2; configuration not given here)",alpha-1-antitrypsin polymerization,[1],significantly less alpha-1-antitrypsin polymerization
same,inhibition of elastase activity by alpha-1-antitrypsin in the presence of peptide,[3]; FIG. 2,"inhibits elastase activity significantly, in fact to a level comparable to that of wild type alpha-1-antitrypsin"
same,inhibition of alpha-1-antitrypsin activity by the peptide,[3]; at concentrations required to inhibit polymerization,does not inhibit alpha-1-antitrypsin activity
COc1ccc(C(O)C(=O)NNC(=O)N[C@H](C(N)=O)C(C)O)cc1O (stereo partly drawn) [Compound VI],intracellular levels of ZAT,[4]; [7],lower levels of ZAT
same,intracellular levels of ZAT,[4]; [8],even lower
same,intracellular levels of ZAT,"[4]; 1 mM, FIG. 13 western blot",significant reduction in ZAT levels intracellularly
same,"intracellular levels of ZAT, normalized densitometry",[4]; 1 mM,Levels are lower
"CC(=O)NC(C(=O)NC(CCC(=O)O)C(=O)NC(C)C(=O)NC(C)C(N)=O)C(C)O (stereo not drawn) [Ac-TEAA-NH2, Ac-Thr-Glu-Ala-Ala-NH2] (Ac-TEAA-NH2; configuration not given here)",alpha-1-antitrypsin polymerization,[1],significantly less alpha-1-antitrypsin polymerization
"CC(=O)NC(C(=O)NC(CO)C(=O)NC(C)C(=O)NC(C)C(N)=O)C(C)O (stereo not drawn) [Ac-TSAA-NH2, Ac-Thr-Ser-Ala-Ala-NH2] (Ac-TSAA-NH2; configuration not given here)",alpha-1-antitrypsin polymerization,[1],significantly less alpha-1-antitrypsin polymerization
COc1ccc(C(O)C(=O)NNC(=O)N[C@@H](CO)C(N)=O)cc1O (stereo partly drawn) [Compound V],extracellular levels of ZAT and alpha-1-antitrypsin activity,[5],higher activity levels with higher treatment
same,intracellular levels of ZAT,[4]; [7],lower levels of ZAT
same,intracellular levels of ZAT,[4]; [8],even lower
same,intracellular levels of ZAT,"[4]; 1 mM, FIG. 13 western blot",significant reduction in ZAT levels intracellularly
same,"intracellular levels of ZAT, normalized densitometry",[4]; 1 mM,Levels are lower
Ac-TTAI-NH2,in vitro polymerization of Z-AT,[2],block in vitro polymerization of Z-AT
O=C(O)CCCc1ccccc1 [4-phenylbutyric acid],secretion of Z-AT from cells,[6],can increase secretion of Z-AT from cells
